Molecular target: T1, Gal-1 (Homo sapiens, UniProt P09382)
T1 construct: made in house; host or cells: E. coli BL21(DE3)
Test: Pull-down assay with immobilized protein and LSM libraries
Assay type: binding
Settings: H12 library; 1:1 binding assumed; read-out: Surface mapping KD (apparent)
Experimental: Pull-down assays with immobilized test proteins and foldameric LSM libraries were carried out. Proteins were equilibrated with LSM probes, and equilibrium bound fractions (FB) were determined from the unbound fractions measured by HPLC-MS methods. Hits were corrected with background binding of the resin. The protocol allowed all binding events to equilibrate irrespective of affinity, specificity, and binding kinetics. This was essential to judge overall druggability and promiscuity. Importantly, the concentration of protein and the total concentration of foldameric LSMs were equimolar, which minimized competition between the probes. This experimental setup approximated independent binding of individual library members. Results were visualized as heat maps of dissociation constants (Fig. 3).
Pull-down assay and data analysis
Pull-down assay. LSM sublibraries were screened separately as previously described.(2) Experiments were performed in the following buffers: (i) 20 mM pH 7.4 HEPES, 150 mM NaCl, 5 mM CaCl2 for CaM; (ii) 50 mM pH 7.4 HEPES, 150 mM NaCl, 1 mM TCEP, 1 mM CaCl2 for S100 proteins; (iii) 20 mM pH 7.4 HEPES, 150 mM NaCl, 1 mM TCEP for Gal-1 and (iv) 20 mM pH 7.4 HEPES, 150 mM NaCl for RecQ-WH. Assays were performed in paper filter spin cups (Thermo Scientific) with sample volumes of 100 µl. Hexahistidine-tagged proteins were immobilized on previously washed Co-NTA resin (TALON, Takara Bio USA, Inc., Mountain View, CA) in 64 µM final concentration. LSM sublibrary was added, in which each of the 64 library members were used at a concentration of 1 µM. Samples were incubated at room temperature for 30 min with shaking at 100 rpm. Then, samples were centrifuged at 1000 rpm for 2 min and washed with 100 µl pull-down buffer to remove unbound compounds.
The control experiments were performed using the same compounds and the resin but without the immobilized protein. In case of competitive assays, competitor peptides were added to LSM sublibrary samples in 200 µM final concentration. In the case of Gal-1, lactose (competitor) was used in a concentration of 10 mM. Experiments were performed at least twice. Mean […]
LC-MS methods and parameters. HPLC/ESI-MS analysis was used to characterize the samples from the pull-down assay. LC-MS analysis was performed with a Thermo Scientific Dionex UltiMate 3000 HPLC system interfaced to an LTQ ion trap mass spectrometer (Thermo Electron Corp., San Jose, CA, USA). Samples were injected onto an Aeris Widepore XB-C18 (250 x 4.6 mm) analytical HPLC column using gradient elution 5-80 % solution B during 25 minutes. For pull-down samples, eluent composition was 0.1% acetic acid in distilled water (Solution A) and 0.1% acetic acid in acetonitrile (solution B). Mass spectra were acquired in full scan mode from 200 to 2000 m/z range. For overlapping peaks, selective reaction monitoring (SRM) was […]
MS data analysis. Thermo Xcalibur 2.2 software was used for peak identification and integration. The majority of the foldameric fragments could be resolved independently via HPLC-MS/MS measurements based on molecular weight, MS fragmentation pattern and retention time. Peaks of some foldamers with β3-hIle or β3-hLeu in position R2 could not be resolved, these were integrated and averaged. In the processing method, each sample component was associated to a chromatographic peak based on previously identified mass (m/z) and retention time (ref (2) and Table S7-10). Using ICIS peak detection algorithm, the general detection and integration criteria were: smoothing points: 5, baseline window: 80, area noise factor: 5, peak noise factor: 10. Using these processing setups, all raw data files were reprocessed together and analyzed. Errors in peak identification during the automatic processing were corrected manually.
Calculation of the discussed parameters
1. Bound fractions (FB.) were calculated from the HPLC-MS intensity loss of the LSM probes compared to the control where no protein was immobilized to the resin: […]

T1 sequence (P09382 whole entry): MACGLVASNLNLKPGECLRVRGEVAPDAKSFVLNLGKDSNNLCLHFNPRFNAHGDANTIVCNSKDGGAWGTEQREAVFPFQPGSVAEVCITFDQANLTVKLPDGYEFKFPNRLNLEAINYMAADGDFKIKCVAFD

In order of rising Kd:
1. NCCCC[C@@H](CC(=O)N[C@H]1CCC[C@@H]1C(=O)N[C@H]1CCC[C@@H]1C(N)=O)NC(=O)[C@H]1CCC[C@@H]1NC(=O)[C@H]1CCC[C@@H]1NC(=O)C[C@H](CC(=O)O)NC(=O)[C@H]1CCC[C@@H]1NC(=O)[C@H]1CCC[C@@H]1N [H12 DK]  173 µM
2. NC(=O)[C@H]1CCC[C@@H]1NC(=O)[C@H]1CCC[C@@H]1NC(=O)C[C@H](CO)NC(=O)[C@H]1CCC[C@@H]1NC(=O)[C@H]1CCC[C@@H]1NC(=O)C[C@H](CC(=O)O)NC(=O)[C@H]1CCC[C@@H]1NC(=O)[C@H]1CCC[C@@H]1N [H12 DS]  199 µM
3. NC(=O)[C@H]1CCC[C@@H]1NC(=O)[C@H]1CCC[C@@H]1NC(=O)C[C@H](Cc1ccc(O)cc1)NC(=O)[C@H]1CCC[C@@H]1NC(=O)[C@H]1CCC[C@@H]1NC(=O)C[C@H](CC(=O)O)NC(=O)[C@H]1CCC[C@@H]1NC(=O)[C@H]1CCC[C@@H]1N [H12 DY]  205 µM
4. CSCC[C@@H](CC(=O)N[C@H]1CCC[C@@H]1C(=O)N[C@H]1CCC[C@@H]1C(N)=O)NC(=O)[C@H]1CCC[C@@H]1NC(=O)[C@H]1CCC[C@@H]1NC(=O)C[C@H](CC(=O)O)NC(=O)[C@H]1CCC[C@@H]1NC(=O)[C@H]1CCC[C@@H]1N [H12 DM]  218 µM
5. NC(=O)C[C@@H](CC(=O)N[C@H]1CCC[C@@H]1C(=O)N[C@H]1CCC[C@@H]1C(N)=O)NC(=O)[C@H]1CCC[C@@H]1NC(=O)[C@H]1CCC[C@@H]1NC(=O)C[C@H](CC(=O)O)NC(=O)[C@H]1CCC[C@@H]1NC(=O)[C@H]1CCC[C@@H]1N [H12 DN]  226 µM
6. NC(=O)[C@H]1CCC[C@@H]1NC(=O)[C@H]1CCC[C@@H]1NC(=O)C[C@H](CCC(=O)O)NC(=O)[C@H]1CCC[C@@H]1NC(=O)[C@H]1CCC[C@@H]1NC(=O)C[C@H](CC(=O)O)NC(=O)[C@H]1CCC[C@@H]1NC(=O)[C@H]1CCC[C@@H]1N [H12 DE]  238 µM
7. NC(=O)[C@H]1CCC[C@@H]1NC(=O)[C@H]1CCC[C@@H]1NC(=O)C[C@H](CC(=O)O)NC(=O)[C@H]1CCC[C@@H]1NC(=O)[C@H]1CCC[C@@H]1NC(=O)C[C@H](CCC(=O)O)NC(=O)[C@H]1CCC[C@@H]1NC(=O)[C@H]1CCC[C@@H]1N [H12 ED]  238 µM
8. NC(=O)[C@H]1CCC[C@@H]1NC(=O)[C@H]1CCC[C@@H]1NC(=O)C[C@H](Cc1c[nH]c2ccccc12)NC(=O)[C@H]1CCC[C@@H]1NC(=O)[C@H]1CCC[C@@H]1NC(=O)C[C@H](CC(=O)O)NC(=O)[C@H]1CCC[C@@H]1NC(=O)[C@H]1CCC[C@@H]1N [H12 DW]  240 µM
9. NC(=O)CC[C@@H](CC(=O)N[C@H]1CCC[C@@H]1C(=O)N[C@H]1CCC[C@@H]1C(N)=O)NC(=O)[C@H]1CCC[C@@H]1NC(=O)[C@H]1CCC[C@@H]1NC(=O)C[C@H](CC(=O)O)NC(=O)[C@H]1CCC[C@@H]1NC(=O)[C@H]1CCC[C@@H]1N [H12 DQ]  244 µM
10. NC(=O)[C@H]1CCC[C@@H]1NC(=O)[C@H]1CCC[C@@H]1NC(=O)C[C@H](Cc1ccccc1)NC(=O)[C@H]1CCC[C@@H]1NC(=O)[C@H]1CCC[C@@H]1NC(=O)C[C@H](CCC(=O)O)NC(=O)[C@H]1CCC[C@@H]1NC(=O)[C@H]1CCC[C@@H]1N [H12 EF]  245 µM
11. C[C@@H](CC(=O)N[C@H]1CCC[C@@H]1C(=O)N[C@H]1CCC[C@@H]1C(N)=O)NC(=O)[C@H]1CCC[C@@H]1NC(=O)[C@H]1CCC[C@@H]1NC(=O)C[C@H](CC(=O)O)NC(=O)[C@H]1CCC[C@@H]1NC(=O)[C@H]1CCC[C@@H]1N [H12 DA]  248 µM
12. NC(=O)[C@H]1CCC[C@@H]1NC(=O)[C@H]1CCC[C@@H]1NC(=O)C[C@H](Cc1ccccc1)NC(=O)[C@H]1CCC[C@@H]1NC(=O)[C@H]1CCC[C@@H]1NC(=O)C[C@H](CC(=O)O)NC(=O)[C@H]1CCC[C@@H]1NC(=O)[C@H]1CCC[C@@H]1N [H12 DF]  254 µM
13. CC(C)[C@@H](CC(=O)N[C@H]1CCC[C@@H]1C(=O)N[C@H]1CCC[C@@H]1C(N)=O)NC(=O)[C@H]1CCC[C@@H]1NC(=O)[C@H]1CCC[C@@H]1NC(=O)C[C@H](CC(=O)O)NC(=O)[C@H]1CCC[C@@H]1NC(=O)[C@H]1CCC[C@@H]1N [H12 DV]  270 µM
14. C[C@@H](CC(=O)N[C@H]1CCC[C@@H]1C(=O)N[C@H]1CCC[C@@H]1C(=O)N[C@@H](CO)CC(=O)N[C@H]1CCC[C@@H]1C(=O)N[C@H]1CCC[C@@H]1C(N)=O)NC(=O)[C@H]1CCC[C@@H]1NC(=O)[C@H]1CCC[C@@H]1N [H12 AS]  307 µM
15. C[C@@H](CC(=O)N[C@H]1CCC[C@@H]1C(=O)N[C@H]1CCC[C@@H]1C(=O)N[C@@H](CC(N)=O)CC(=O)N[C@H]1CCC[C@@H]1C(=O)N[C@H]1CCC[C@@H]1C(N)=O)NC(=O)[C@H]1CCC[C@@H]1NC(=O)[C@H]1CCC[C@@H]1N [H12 AN]  330 µM
16. C[C@@H](CC(=O)N[C@H]1CCC[C@@H]1C(=O)N[C@H]1CCC[C@@H]1C(N)=O)NC(=O)[C@H]1CCC[C@@H]1NC(=O)[C@H]1CCC[C@@H]1NC(=O)C[C@H](CCC(=O)O)NC(=O)[C@H]1CCC[C@@H]1NC(=O)[C@H]1CCC[C@@H]1N [H12 EA]  340 µM
17. NC(=O)[C@H]1CCC[C@@H]1NC(=O)[C@H]1CCC[C@@H]1NC(=O)C[C@H](CCC(=O)O)NC(=O)[C@H]1CCC[C@@H]1NC(=O)[C@H]1CCC[C@@H]1NC(=O)C[C@H](CCC(=O)O)NC(=O)[C@H]1CCC[C@@H]1NC(=O)[C@H]1CCC[C@@H]1N [H12 EE]  349 µM
18. NC(=O)[C@H]1CCC[C@@H]1NC(=O)[C@H]1CCC[C@@H]1NC(=O)C[C@H](CC(=O)O)NC(=O)[C@H]1CCC[C@@H]1NC(=O)[C@H]1CCC[C@@H]1NC(=O)C[C@H](CC(=O)O)NC(=O)[C@H]1CCC[C@@H]1NC(=O)[C@H]1CCC[C@@H]1N [H12 DD]  372 µM
19. C[C@@H](CC(=O)N[C@H]1CCC[C@@H]1C(=O)N[C@H]1CCC[C@@H]1C(=O)N[C@@H](CCC(=O)O)CC(=O)N[C@H]1CCC[C@@H]1C(=O)N[C@H]1CCC[C@@H]1C(N)=O)NC(=O)[C@H]1CCC[C@@H]1NC(=O)[C@H]1CCC[C@@H]1N [H12 AE]  388 µM
20. C[C@@H](O)[C@@H](CC(=O)N[C@H]1CCC[C@@H]1C(=O)N[C@H]1CCC[C@@H]1C(N)=O)NC(=O)[C@H]1CCC[C@@H]1NC(=O)[C@H]1CCC[C@@H]1NC(=O)C[C@H](CC(=O)O)NC(=O)[C@H]1CCC[C@@H]1NC(=O)[C@H]1CCC[C@@H]1N [H12 DT]  398 µM
21. C[C@@H](CC(=O)N[C@H]1CCC[C@@H]1C(=O)N[C@H]1CCC[C@@H]1C(=O)N[C@@H](CC(=O)O)CC(=O)N[C@H]1CCC[C@@H]1C(=O)N[C@H]1CCC[C@@H]1C(N)=O)NC(=O)[C@H]1CCC[C@@H]1NC(=O)[C@H]1CCC[C@@H]1N [H12 AD]  438 µM
22. C[C@@H](CC(=O)N[C@H]1CCC[C@@H]1C(=O)N[C@H]1CCC[C@@H]1C(=O)N[C@@H](CCC(N)=O)CC(=O)N[C@H]1CCC[C@@H]1C(=O)N[C@H]1CCC[C@@H]1C(N)=O)NC(=O)[C@H]1CCC[C@@H]1NC(=O)[C@H]1CCC[C@@H]1N [H12 AQ]  456 µM
23. CC(C)[C@@H](CC(=O)N[C@H]1CCC[C@@H]1C(=O)N[C@H]1CCC[C@@H]1C(N)=O)NC(=O)[C@H]1CCC[C@@H]1NC(=O)[C@H]1CCC[C@@H]1NC(=O)C[C@H](C)NC(=O)[C@H]1CCC[C@@H]1NC(=O)[C@H]1CCC[C@@H]1N [H12 AV]  491 µM

Same assay, conditions: read-out: KD estimated by pull-down experiments

NC(=O)[C@H]1CCCC[C@@H]1NC(=O)C[C@H](Cc1c[nH]c2ccccc12)NC(=O)[C@H]1CCCC[C@@H]1NC(=O)[C@H]1CCCC[C@@H]1NC(=O)C[C@H](Cc1c[nH]c2ccccc12)NC(=O)[C@H]1CCCC[C@@H]1N [1b] and NC(=O)[C@H]1CCCC[C@@H]1NC(=O)C[C@H](Cc1ccccc1)NC(=O)[C@H]1CCCC[C@@H]1NC(=O)[C@H]1CCCC[C@@H]1NC(=O)C[C@H](Cc1c[nH]c2ccccc12)NC(=O)[C@H]1CCCC[C@@H]1N [12b] fall in the same range of Kd: 30 to 40 µM for the first, 30 to 40 µM for the second.

Source: publication PMC8162404, “Proteomimetic surface fragments distinguish targets by function” (Chemical Science, 2020)
